The assay has as its target T1, human H1 receptor (Homo sapiens, UniProt P35367).
T1 construct: expressed in transfected cells; host or cells: CHO cells (crude membranes)
In words: Human histamine H1 receptor binding assay. The conditions noted are these: competition with 1.5 nM [pyridinyl-5-3H]Pyrilamine, crude membranes of CHO cells transfected with human H1 receptor; Ki from IC50 by Cheng-Prusoff. How it is done: Compounds of the present invention may be evaluated for binding to the histamine H1 receptor by a standard binding assay. […] Non-specific binding is determined in the presence of excess (1 μM) doxepin. Bound and free ligand are separated by rapid vacuum filtration using a Packard 96-well cell harvester onto UniFilter GF/C filter plates (PerkinElmer) that has been pretreated with 1% polyethyleneimine. The filter plates are then washed with 600 μl phosphate buffered saline containing 0.01% (v/v) Triton-X100. Bound radioligand is determined by scintillation counting using a TopCount-NXT (Packard). Binding data is analyzed by nonlinear, least-squares curve fitting algorithms using GraphPad Prism (GraphPad Software, Inc. San Diego, Calif.) or ActivityBase (IDBS, Guildford, Surrey, UK).
T1 sequence (P35367 whole entry): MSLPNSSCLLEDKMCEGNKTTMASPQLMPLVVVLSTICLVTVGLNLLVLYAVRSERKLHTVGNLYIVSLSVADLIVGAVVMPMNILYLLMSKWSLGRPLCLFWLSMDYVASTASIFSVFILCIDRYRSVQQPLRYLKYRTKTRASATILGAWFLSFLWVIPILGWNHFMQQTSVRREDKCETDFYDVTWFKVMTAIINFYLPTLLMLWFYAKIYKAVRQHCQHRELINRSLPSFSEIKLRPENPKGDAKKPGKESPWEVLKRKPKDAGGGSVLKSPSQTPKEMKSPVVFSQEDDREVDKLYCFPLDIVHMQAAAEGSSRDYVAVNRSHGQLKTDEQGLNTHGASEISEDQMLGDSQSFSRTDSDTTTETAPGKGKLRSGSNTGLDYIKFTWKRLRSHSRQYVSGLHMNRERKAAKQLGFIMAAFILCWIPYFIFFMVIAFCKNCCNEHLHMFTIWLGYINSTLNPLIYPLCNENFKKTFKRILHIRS
Regarding `CNCCC1=C(C(C)c2nc(C)cs2)c2ccccc2C1` (stereo not shown) [15-6], the Ki was at most 250 nM.

Compound `CCCOc1cncc(CC2=C(CCN(C)C)Cc3ccccc32)n1` [4-17] had a Ki of at most 250 nM.

For `COc1ccc2c(c1)C(C(C)c1nccs1)=C(CCN(C)C)C2` (single isomer, unassigned) [25-2, {2-[5-methoxy-3-(1-thiazol-2-yl-ethyl)-1H-inden-2-yl]-ethyl}-dimethyl-amine], the Ki was at most 250 nM.

With `Cc1ccc2c(c1)CC(CCN(C)C)=C2Cc1cccnn1` [4-25], the Ki is at most 250 nM.

On to `COc1nccnc1C(C)C1=C(CCN(C)C)Cc2cc(Cl)ccc21` (stereo not shown) [4-20], for which the Ki was at most 250 nM.

For the compound `Cc1csc([C@H](C)C2=C(CCN(C)C)Cc3cc(Cl)ccc32)n1` [22-5], the Ki was at most 250 nM.

`COc1nccnc1[C@@H](C)C1=C(CCN(C)C)Cc2cc(Cl)ccc21` [4-22] showed a Ki of at most 250 nM.

Consider `O[C@@H]1CCN(CCC2=C(Cc3cccnn3)c3ccc(F)cc3C2)C1` [19-3], for which the Ki is at most 250 nM.

In turn, `Fc1ccc2c(c1)CC(CCN1CCC1)=C2Cc1cccnn1` [20-1, 3-[2-(2-azetidin-1-yl-ethyl)-5-fluoro-3H-inden-1-ylmethyl]-pyridazine] returned a Ki of at most 250 nM.

For the compound `COCC(C)C1=C(CCN(C)C)Cc2ccccc21` (stereo not shown) [6-2], the inhibition constant Ki was at most 250 nM.

The compound `c1cnnc(CC2=C(CCN3CCCC3)Cc3ccccc32)c1` [21-8] displayed a Ki of at most 250 nM.

In turn, `CC(CC1=C(Cc2cccnn2)c2ccccc2C1)N1CCCC1` (stereo not shown) [18-5] had a Ki of at most 250 nM.

As to `COc1nccnc1[C@H](C)C1=C(CCN(C)C)Cc2cc(Cl)ccc21` [4-23], the Ki is at most 250 nM.

The compound `COc1ccc2c(c1)CC(CCN(C)C)=C2Cc1cccnn1` [4-42] gave a Ki of at most 250 nM.

`CCN(C)CCC1=C(Cc2cnccn2)c2ccccc2C1` [16-1, ethyl-methyl-[2-(3-pyrazin-2-ylmethyl-1H-inden-2-yl)-ethyl]-amine] gave a Ki of at most 250 nM.

`CC(C1=NCCO1)C1=C(CCN(C)C)Cc2ccccc21` (stereo not shown) [13-1, (2-{3-[1-(4,5-dihydro-oxazol-2-yl)-ethyl]-1H-inden-2-yl}-ethyl)-dimethyl-amine] showed a Ki of at most 250 nM.

In turn, `CC1CN=C(C(C)C2=C(CCN(C)C)Cc3ccccc32)O1` (stereo not shown) [12-1, dimethyl-(2-{3-[1-(5-methyl-4,5-dihydro-oxazol-2-yl)-ethyl]-1H-inden-2-yl}-ethyl)-amine] displayed a Ki of at most 250 nM.

`CCC(C1=C(CCN(C)C)Cc2cc(F)ccc21)c1nccnc1OC` (stereo not shown) [4-39] registered a Ki of at most 250 nM.

Regarding `COc1ccc2c(c1)CC(CCN1CCOCC1)=C2Cc1cnccn1` [21-9], the Ki was at most 250 nM.

The compound `Cc1nnc(C(C)C2=C(CCN(C)C)Cc3ccccc32)o1` (stereo not shown) [8-1, dimethyl-(2-{3-[1-(5-methyl-[1,3,4]oxadiazol-2-yl)-ethyl]-1H-inden-2-yl}-ethyl)-amine] yielded a Ki of at most 250 nM.

The compound `CCOc1nccnc1CC1=C(CCN(C)C)Cc2ccccc21` [4-16] returned an inhibitory constant (Ki) of at most 250 nM.

Compound `CC(C(=O)OC(C)(C)C)C1=C(CCN(C)C)Cc2ccccc21` (stereo not shown) [7-1, 2-[2-(2-dimethylamino-ethyl)-3H-inden-1-yl]-propionic acid tert-butyl ester] came in with a Ki of at most 250 nM.

Regarding `c1ccc2c(c1)CC(CCN1CCCC1)=C2Cc1cnccn1` [21-7], the Ki was at most 250 nM.

In turn, `CCCN(C)CCC1=C(Cc2cnccn2)c2ccccc2C1` [16-2] came in with a Ki of at most 250 nM.

Compound `COc1ccc2c(c1)CC(CCN1CCCC1)=C2Cc1cccnn1` [21-6] came in with a Ki of at most 250 nM.

`CCOc1nccnc1C(C)C1=C(CCN(C)C)Cc2cc(F)ccc21` (stereo not shown) [4-38] came in with a Ki of at most 250 nM.

Take `CCOCC(C)C1=C(CCN(C)C)Cc2ccccc21` (stereo not shown) [6-1, {2-[3-(2-ethoxy-1-methyl-ethyl)-1H-inden-2-yl]-ethyl}-dimethyl-amine]: the inhibitory constant (Ki) is at most 250 nM.

`CNCCC1=C(Cc2cnccn2)c2ccccc2C1` [15-4, methyl-[2-(3-pyrazin-2-ylmethyl-1H-inden-2-yl)-ethyl]-amine] displayed a Ki of at most 250 nM.

Compound `COC(=O)C(C)C1=C(CCN(C)C)Cc2ccccc21` (stereo not shown) [7-3] displayed a Ki of at most 250 nM.

The compound `CC(C1=C(CCN(C)C)Cc2ccccc21)c1ncc(-c2ccccc2)o1` (stereo not shown) [9-1, dimethyl-(2-{3-[1-(5-phenyl-oxazol-2-yl)-ethyl]-1H-inden-2-yl}-ethyl)-amine] displayed a Ki of at most 250 nM.

As for `Fc1ccc2c(c1)CC(CCN1CCCC1)=C2Cc1cccnn1` [19-1, 3-[5-fluoro-2-(2-pyrrolidin-1-yl-ethyl)-3H-inden-1-ylmethyl]-pyridazine], the Ki was at most 250 nM.

`CC(C1=C(CCN(C)C)Cc2cc(Cl)ccc21)c1nccs1` (single isomer, unassigned) [23-2, {2-[6-chloro-3-(1-thiazol-2-yl-ethyl)-1H-inden-2-yl]-ethyl}-dimethyl-amine] displayed an inhibition constant Ki of at most 250 nM.

Take `CC(C#N)C1=C(CCN(C)C)Cc2cc(Cl)ccc21` (stereo not shown) [23-1, 2-[5-chloro-2-(2-dimethylamino-ethyl)-3H-inden-1-yl]-propionitrile]: the Ki was at most 250 nM.

As to `CN(C)CCC1=C(C(C)(C)c2cnccn2)c2ccccc2C1` [4-12], the Ki was at most 250 nM.

`CNCCC1=C(C(C)c2cnccn2)c2ccc(C)cc2C1` (stereo not shown) [15-5] gave a Ki of at most 250 nM.

Compound `CC(C1=C(CCN(C)C)Cc2ccccc21)c1nnc(-c2ccccc2)s1` (stereo not shown) [14-2] had a Ki of at most 250 nM.

`CC(C1=C(CCN(C)C)Cc2ccccc21)c1nnc(-c2ccccc2)o1` (stereo not shown) [8-2]: the inhibitory constant (Ki) is at most 250 nM.

As for `COc1ccc2c(c1)CC(CCN1CCCC1)=C2Cc1cnccn1` [21-5], the inhibition constant Ki is at most 250 nM.

For `CNCCC1=C([C@@H](C)c2cnccn2)c2ccccc2C1` [15-2, methyl-{2-[3-((R)-1-pyrazin-2-yl-ethyl)-1H-inden-2-yl]-ethyl}-amine], the Ki is at most 250 nM.

In turn, `Cc1cnc(C(C)C2=C(CCN(C)C)Cc3ccccc32)s1` (stereo not shown) [10-2, dimethyl-(2-{3-[1-(5-methyl-thiazol-2-yl)-ethyl]-1H-inden-2-yl}-ethyl)-amine] came in with a Ki of at most 250 nM.

Compound `CC(CC1=C(Cc2cnccn2)c2ccccc2C1)N1CCCC1` (stereo not shown) [18-4] yielded a Ki of at most 250 nM.

For `c1ccc2c(c1)CC(CCN1CCC1)=C2Cc1cnccn1` [21-10], the inhibition constant Ki is at most 250 nM.

For the compound `CC(CC1=C(Cc2cnccn2)c2ccccc2C1)N(C)C` (stereo not shown) [18-1, dimethyl-[1-methyl-2-(3-pyrazin-2-ylmethyl-1H-inden-2-yl)-ethyl]-amine], the Ki is at most 250 nM.

Compound `COc1ccc2c(c1)CC(CCN1CCC1)=C2[C@@H](C)c1cnccn1` [21-2] gave a Ki of at most 250 nM.

As for `Fc1ccc2c(c1)CC(CCN1CCOCC1)=C2Cc1cccnn1` [19-2], the Ki is at most 250 nM.

The compound `CC(C1=C(CCN(C)C)Cc2ccccc21)c1ncc(-c2ccccc2)s1` (stereo not shown) [10-1, dimethyl-(2-{3-[1-(5-phenyl-thiazol-2-yl)-ethyl]-1H-inden-2-yl}-ethyl)-amine] registered an inhibition constant (Ki) of at most 250 nM.

`COc1ccc2c(c1)CC(CCN1CCC1)=C2C(C)c1cnccn1` (stereo not shown) [21-1, 2-{1-[2-(2-azetidin-1-yl-ethyl)-5-methoxy-3H-inden-1-yl]-ethyl}-pyrazine] showed a Ki of at most 250 nM.

As to `Cc1nnc(C(C)C2=C(CCN(C)C)Cc3ccccc32)s1` (stereo not shown) [14-1, dimethyl-(2-{3-[1-(5-methyl-[1,3,4]thiadiazol-2-yl)-ethyl]-1H-inden-2-yl}-ethyl)-amine], the Ki is at most 250 nM.

`O[C@H]1CCN(CCC2=C(Cc3cccnn3)c3ccc(F)cc3C2)C1` [19-4] gave an inhibition constant (Ki) of at most 250 nM.

Compound `CC(C1=C(CCN(C)C)Cc2ccccc21)c1ccncn1` (stereo not shown) [4-2] returned an inhibition constant (Ki) of at most 250 nM.

With `CN(CCO)CCC1=C(Cc2cnccn2)c2ccccc2C1` [16-3], the Ki was at most 250 nM.

On to `Cc1cnc(C(C)C2=C(CCN(C)C)Cc3ccccc32)o1` (stereo not shown) [11-1], for which the Ki was at most 250 nM.

These data come from US20050277645A1, “Sleep inducing compounds and methods relating thereto” (Neurocrine Biosciences, Inc., priority 2004, published 2005).
